What is called MFC is the lowest tested concentration that kills the fungus rather than only halting it. A higher MFC goes with less potent killing. For orientation: MIC means the smallest concentration in the dilution series that meets the test's criterion for growth inhibition. A low value points to greater potency. Usually MBC stands for the lowest tested concentration that kills the bacteria rather than only halting them.

Converted amounts (≈) assume the structure as drawn.

Format in all cases: functional
The subject of one assay is Candida albicans. The assay is described as follows: Antimicrobial activity against Candida albicans DSM 70014 after 48 hr by two-fold serial broth dilution method. The conditions noted are these: DSM 70014, 48 h. On the technique in general: Broth dilution looks for growth in wells or tubes with falling amounts of substance.
Assay [1] concerns Pseudomonas aeruginosa. The assay is described as follows: Antimicrobial activity against Pseudomonas aeruginosa ATCC 10145 after 48 hr by two-fold serial broth dilution method. The conditions noted are these: ATCC 10145, 48 h.
The next assay deals with SR. In words: Growth inhibition of Homo sapiens (human) SR cells at 10 uM after 48 hr by SRB assay. The conditions noted are these: read-out: GI. For orientation: In SRB staining, fixed cells bind dye roughly in proportion to their protein.
The test system of a further assay is Staphylococcus aureus. In words: Antimicrobial activity against Staphylococcus aureus DSM 1104 after 48 hr by two-fold serial broth dilution method. The conditions noted are these: DSM 1104, 48 h.
Another assay relates to Escherichia coli. In words: Antimicrobial activity against Escherichia coli ATCC 11775 after 48 hr by two-fold serial broth dilution method. The conditions noted are these: ATCC 11775, 48 h.
The next assay relates to Bacillus subtilis. In words: Antimicrobial activity against Bacillus subtilis ATCC 6633 after 48 hr by two-fold serial broth dilution method. The conditions noted are these: ATCC 6633, 48 h.
The test system of assay [2] is Pseudomonas aeruginosa. In words: Ratio of ampicillin MIC to compound MIC for Pseudomonas aeruginosa ATCC 10145 after 48 hr by two-fold serial broth dilution method.
The test system of a further assay is T47D. In words: Growth inhibition of Homo sapiens (human) T47D cells at 10 uM after 48 hr by SRB assay. The conditions noted are these: read-out: GI.
Another assay has as its system UO-31. In words: Growth inhibition of Homo sapiens (human) UO31 cells at 10 uM after 48 hr by SRB assay. The conditions noted are these: UO-31, 48 h, read-out: GI.

On to `COc1ccc(OC)c(/C=C/c2nnc(Nc3ccc(Cl)cc3)s2)c1`, for which, in the assay with Candida albicans, the MFC was determined as 50 µg/mL (≈ 134 µM). Besides, the MIC against Candida albicans was 25 µg/mL (≈ 66.9 µM); with Pseudomonas aeruginosa [1], 100 µg/mL (≈ 267 µM); in the assay with Staphylococcus aureus it was 25 µg/mL (≈ 66.9 µM); in the assay with Escherichia coli, 100 µg/mL (≈ 267 µM); against Bacillus subtilis, 100 µg/mL (≈ 267 µM). The MBC against Pseudomonas aeruginosa [1], in the assay on Staphylococcus aureus, in the assay with Escherichia coli and against Bacillus subtilis was 100 µg/mL (≈ 267 µM) in each case. For the same compound, in the assay on SR, the inhibition of growth at 10 µM was 32.1%.

Regarding `COc1ccc(OC)c(/C=C/c2nnc(SC)n2-c2ccc(C)cc2)c1`, in the assay on Pseudomonas aeruginosa [2], the Ratio is recorded as 4. Besides, the MFC in the assay on Candida albicans amounted to 50 µg/mL (≈ 136 µM). The minimum inhibitory concentration (MIC) was 50 µg/mL (≈ 136 µM) against Candida albicans; 12.5 µg/mL (≈ 34 µM) in the assay with Pseudomonas aeruginosa [1]; 50 µg/mL (≈ 136 µM) in the assay with Staphylococcus aureus; 50 µg/mL (≈ 136 µM) with Escherichia coli; 50 µg/mL (≈ 136 µM) in the assay on Bacillus subtilis. For the same compound, the MBC stood at 25 µg/mL (≈ 68 µM) against Pseudomonas aeruginosa [1], 50 µg/mL (≈ 136 µM) against Staphylococcus aureus, 50 µg/mL (≈ 136 µM) with Escherichia coli and 50 µg/mL (≈ 136 µM) in the assay with Bacillus subtilis.

The compound `CCSc1nnc(/C=C/c2cc(OC)ccc2OC)n1-c1ccc(Cl)cc1` had an MFC with Candida albicans of 50 µg/mL (≈ 124 µM). The MIC against Candida albicans is 50 µg/mL (≈ 124 µM); against Pseudomonas aeruginosa [1] it was 50 µg/mL (≈ 124 µM); against Staphylococcus aureus, 100 µg/mL (≈ 249 µM); in the assay with Escherichia coli, 50 µg/mL (≈ 124 µM); in the assay with Bacillus subtilis, 50 µg/mL (≈ 124 µM). The MBC came out at 50 µg/mL (≈ 124 µM) in the assay with Pseudomonas aeruginosa [1], 100 µg/mL (≈ 249 µM) against Staphylococcus aureus, 50 µg/mL (≈ 124 µM) against Escherichia coli and 100 µg/mL (≈ 249 µM) with Bacillus subtilis.

Compound `COc1ccc(OC)c(/C=C/C2=NN(C(C)=O)C(c3ccc([N+](=O)[O-])cc3)O2)c1` (stereo not given) showed an MFC against Candida albicans of 100 µg/mL (≈ 252 µM). In addition, the MIC against Candida albicans was 100 µg/mL (≈ 252 µM); against Pseudomonas aeruginosa [1], 50 µg/mL (≈ 126 µM); in the assay with Staphylococcus aureus, 100 µg/mL (≈ 252 µM); against Escherichia coli it was 50 µg/mL (≈ 126 µM); in the assay with Bacillus subtilis it was 50 µg/mL (≈ 126 µM). For the same compound, the MBC against Pseudomonas aeruginosa [1], against Staphylococcus aureus, with Escherichia coli and with Bacillus subtilis was 100 µg/mL (≈ 252 µM) in each case.

`CCSc1nnc(/C=C/c2cc(OC)ccc2OC)n1-c1ccc(C)cc1` displayed a minimal fungicidal concentration (MFC) in the assay with Candida albicans of 100 µg/mL (≈ 262 µM). For the same compound, the MIC in the assay with Candida albicans was 100 µg/mL (≈ 262 µM); against Pseudomonas aeruginosa [1], 100 µg/mL (≈ 262 µM); against Staphylococcus aureus, 100 µg/mL (≈ 262 µM); against Escherichia coli, 100 µg/mL (≈ 262 µM); with Bacillus subtilis, 50 µg/mL (≈ 131 µM). For the same compound, the minimal bactericidal concentration (MBC) in the assay with Pseudomonas aeruginosa [1], in the assay with Staphylococcus aureus, against Escherichia coli and against Bacillus subtilis was 100 µg/mL (≈ 262 µM) in each case.

In the case of `COc1ccc(OC)c(/C=C/c2nnc(S)n2-c2ccccc2)c1`, the MFC in the assay with Candida albicans is 100 µg/mL (≈ 295 µM). The MIC against Candida albicans was determined as 100 µg/mL (≈ 295 µM); against Pseudomonas aeruginosa [1], 100 µg/mL (≈ 295 µM); in the assay on Staphylococcus aureus it was 50 µg/mL (≈ 147 µM); against Escherichia coli, 25 µg/mL (≈ 73.7 µM); with Bacillus subtilis it was 50 µg/mL (≈ 147 µM). The MBC against Pseudomonas aeruginosa [1] was 100 µg/mL (≈ 295 µM); with Staphylococcus aureus it was 50 µg/mL (≈ 147 µM); with Escherichia coli it was 50 µg/mL (≈ 147 µM); with Bacillus subtilis, 50 µg/mL (≈ 147 µM).

In the case of `COc1ccc(OC)c(/C=C/c2nnc(SC)n2-c2ccccc2)c1`, the inhibition of growth at 10 µM with T47D came to 41.8%; in the assay on UO-31, 44.5%. In the assay with Pseudomonas aeruginosa [2], the Ratio was determined as 2. Further, the MFC against Candida albicans was 50 µg/mL (≈ 141 µM). Further, the MIC against Candida albicans came out at 50 µg/mL (≈ 141 µM); in the assay on Pseudomonas aeruginosa [1], 25 µg/mL (≈ 70.7 µM); with Staphylococcus aureus, 50 µg/mL (≈ 141 µM); against Escherichia coli it was 50 µg/mL (≈ 141 µM); in the assay on Bacillus subtilis, 50 µg/mL (≈ 141 µM). In addition, the minimum bactericidal concentration (MBC) with Pseudomonas aeruginosa [1], with Staphylococcus aureus, with Escherichia coli and in the assay on Bacillus subtilis was 50 µg/mL (≈ 141 µM) in each case.

In turn, `COc1ccc(OC)c(/C=C/c2nnc(Nc3ccc(C)cc3)o2)c1` had an MFC with Candida albicans of 100 µg/mL (≈ 296 µM). In addition, the MIC in the assay on Candida albicans amounted to 100 µg/mL (≈ 296 µM); with Pseudomonas aeruginosa [1], 50 µg/mL (≈ 148 µM); with Staphylococcus aureus, 100 µg/mL (≈ 296 µM); in the assay with Escherichia coli, 50 µg/mL (≈ 148 µM); with Bacillus subtilis it was 100 µg/mL (≈ 296 µM). Moreover, the MBC in the assay on Pseudomonas aeruginosa [1] was found to be 50 µg/mL (≈ 148 µM); against Staphylococcus aureus it was 100 µg/mL (≈ 296 µM); in the assay with Escherichia coli, 50 µg/mL (≈ 148 µM); against Bacillus subtilis it was 100 µg/mL (≈ 296 µM).

In the assay on Candida albicans, `COc1ccc(OC)c(/C=C/c2nnc(Nc3ccc(C)cc3)s2)c1` returned an MFC of 50 µg/mL (≈ 141 µM). Further, the MIC worked out at 50 µg/mL (≈ 141 µM) with Candida albicans; 100 µg/mL (≈ 283 µM) in the assay with Pseudomonas aeruginosa [1]; 100 µg/mL (≈ 283 µM) with Staphylococcus aureus; 100 µg/mL (≈ 283 µM) in the assay with Escherichia coli; 100 µg/mL (≈ 283 µM) against Bacillus subtilis. The MBC was found to be 100 µg/mL (≈ 283 µM) with Pseudomonas aeruginosa [1], 100 µg/mL (≈ 283 µM) against Staphylococcus aureus, 200 µg/mL (≈ 566 µM) with Escherichia coli and 100 µg/mL (≈ 283 µM) in the assay with Bacillus subtilis.

Source of the values: ChEMBL document CHEMBL3046389, “Synthesis and biological evaluation of novel hydroquinone dimethyl ethers as potential anticancer and antimicrobial agents” (2013).
